Results on eight molecules are retold here after patent US20050130903A1, “Therapeutic agents and methods of use thereof for the modulation of angiogenesis” (priority 2000, published 2005).

One series concerns the target T1, MetAP2 (Homo sapiens, UniProt P50579).
T1 construct: made in house; host or cells: insect cells
Kind of series: MetAP2 enzyme assay. It counts as biochemical. The protocol: Finally, the ability of the angiogenesis inhibitor compounds of the invention to modulate the activity of MetAP2 may be tested as follows. Recombinant human MetAP2 may be expressed and purified from insect cells as described in Li and Chang, (1996) Biochem. Biophys. Res. Commun. 227:152-159. Various amounts of angiogenesis inhibitor compound is then added to buffer H (10 mM Hepes, pH 7.35, 100 mM KCl, 10% glycerol, and […]) containing 1 nM purified recombinant human MetAP2 and incubated at 37° C. for 30 minutes. To start the enzymatic reaction a peptide containing a methionine residue, e.g., Met-Gly-Met, is added to the reaction mixture (to a concentration of 1 mM). Released methionine is subsequently quantified at different time points (e.g., at 0, 2, 3, and 5 minutes) using the method of Zou et al. (1995) Mol. Gen Genetics 246:247-253).
(§1) The angiogenesis inhibitor compounds of the invention were tested for their ability to modulate human endothelial cell growth and for their ability to modulate the activity of MetAP2. The MetAP2 enzyme assay was performed essentially as described in Turk, B. et al. (1999) Chem. & Bio. 6: 823-833, the entire contents of which are incorporated herein by reference. The bovine aortic endothelial cell growth assay (Baec assay) was performed essentially as described in Turk, B. et al. (supra), the entire contents of which are incorporated herein by reference.

Series [1] has as its system human umbilical vein endothelial cells (HUVEC). As to the kind of experiment: human endothelial cell growth assay (Huvec assay). It is filed as cell-based. The procedure: For the human endothelial cell growth assay, human umbilical vein endothelial cells (HUVEC) were maintained in Clonetics endothelial growth medium (EGM) in a 37° C. humidified incubator. Cells were detached with trypsin and pelleted by centrifugation at 300×g for 5 minutes at room temperature. HUVEC were added to 96-well plates at 5,000 cells/well. After incubating for 6 hours, the medium was replaced with 0.2 ml fresh EGM supplemented with 0.5 nM bFGF and the desired concentration of test angiogenesis inhibitor compound. Test angiogenesis inhibitor compounds were initially dissolved in ethanol at stock concentrations of either 10 mM or 0.1 mM, and subsequently diluted in EGM to obtain concentrations from […] to 10 μM. After 48 hours at 37° C., the medium was replaced with fresh bFGF-supplemented EGM and test angiogenesis inhibitor compound. Following incubation for an additional 48 hours at 37° C. MTT (3-[4,5-dimethylthiazol-2-yl]-2,5-diphenyl-tetrazolium bromide) was added to 1 mg/ml. After 2-4 hours at 37° C. the medium was replaced with 0.1 ml/well isopropanol. The plates were placed on a shaker for 15 minutes at room temperature and analyzed in a Labsystems Multiskan plate spectrophotometer at an optical density of 570 nm.

For series [2], the system named is bovine aortic endothelial cell. As to the kind of experiment: bovine aortic endothelial cell growth assay (Baec assay). It counts as cell-based. The protocol: as §1
Series [3] in a line: plasma stability in human plasma. It is filed as in vitro ADME. As to conditions: human plasma, 37° C., 20 μM. The procedure:
The plasma stability of the angiogenesis inhibitor compounds of the invention was also tested in human plasma at 37° C. (at a 20 μM concentration of the angiogenesis inhibitor compound). The matrix minus the test angiogenesis inhibitor compound was equilibrated at 37° C. for 3 minutes. The assay was initiated by addition of the test compound, and the reaction mixture was incubated in a shaking water bath at 37° C. […] The supernatant was analysed by Liquid Chromatography/Mass spectrometry (LC/MS) using a four point standard curve to obtain percent recovery.
The parent compound remaining (relative to time 0) in the incubation mixture was plotted as a function of time; a first order exponential equation was fit to the observed data, and the elimination half-lives associated with the disappearance of the test angiogenesis inhibitor compound were determined.

SMILES strings stand for the structures. Like-named read-outs stand apart in the source and are kept apart here. Square brackets hold non-standard residues; d marks the D form. Peptide text beside a SMILES is read from it. * marks the point of attachment. ξ: configuration not given here. X1 = CO[C@H]1C([C@@]2(C)O[C@@H]2CC=C(C)C)[C@]2(CC[C@H]1OC(=O)N[C@@H](CO*)C(C)C)CO2; X2 = CO[C@@H]1[C@H](OC(=O)*)CC[C@]2(CO2)[C@H]1[C@@]1(C)O[C@@H]1CC=C(C)C; X3 = CO[C@@H]1[C@H](OC(=O)*)CC[C@]2(CO2)[C@H]1[C@@]1(C)O[C@@H]1CCC(C)C; ξP = O=C(O)C1CCCN1

T1 sequence (P50579 whole entry): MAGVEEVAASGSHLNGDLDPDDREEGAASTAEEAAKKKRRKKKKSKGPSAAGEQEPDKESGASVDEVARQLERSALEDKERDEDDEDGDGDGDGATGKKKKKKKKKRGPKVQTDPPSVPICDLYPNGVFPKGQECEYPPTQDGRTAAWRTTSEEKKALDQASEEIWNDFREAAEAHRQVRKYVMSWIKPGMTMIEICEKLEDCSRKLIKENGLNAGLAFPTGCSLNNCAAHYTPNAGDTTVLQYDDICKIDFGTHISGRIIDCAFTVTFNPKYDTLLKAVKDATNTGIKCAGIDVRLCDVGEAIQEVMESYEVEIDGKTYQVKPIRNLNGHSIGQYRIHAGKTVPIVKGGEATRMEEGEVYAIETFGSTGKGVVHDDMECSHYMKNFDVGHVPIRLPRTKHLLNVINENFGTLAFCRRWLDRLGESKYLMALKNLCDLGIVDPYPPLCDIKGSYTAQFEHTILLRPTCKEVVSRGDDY

The IC50 is the midpoint of a concentration-inhibition curve. For `COc1ccc(C[C@H](NC(=O)[C@H](CC(=O)O)NC(=O)CNC(=O)[C@H](CCCNC(=N)N)NC(=O)CNC(=O)O[C@@H]2CC[C@]3(CO3)[C@@H]([C@@]3(C)O[C@@H]3CCC(C)C)[C@@H]2OC)C(=O)N[C@@H](CCCNC(=N)N)C(=O)N[C@@H](CCC(=O)O)C(N)=O)cc1` [Example 14] (X3-GRGDY(Me)RE-NH2), the values for the half-inhibitory concentration (IC50) (against MetAP2; in series [1]) were 4000 nM and more than 10000 nM, respectively.

`COC(=O)[C@H](NC(=O)O[C@@H]1CC[C@]2(CO2)[C@@H]([C@@]2(C)O[C@@H]2CC=C(C)C)[C@@H]1OC)C(C)C` [Example 2, 2-{(3R,4S,5S,6R)-5-Methoxy-4-[(2R,3R)-2-methyl-3-(3-methyl-but-2-enyl)-oxiranyl]-1-oxa-spiro[2.5]oct-6-yloxycarbonylamino}-3-methyl-butyric acid methyl ester]: the IC50 on MetAP2 (read-out: MetAP2 Assay IC50) was 2 nM; in series [2] (Bos taurus, BAEC), 0.048 nM; in series [1] (Homo sapiens, HUVEC, bFGF-supplemented EGM, MTT) it was 0.04 nM.

In turn, `CO[C@@H]1[C@H](OC(=O)NCC(=O)N[C@@H](CCCNC(=N)N)C(=O)NCC(=O)N[C@@H](CC(=O)O)c2cccnc2)CC[C@]2(CO2)[C@H]1[C@@]1(C)O[C@@H]1CC=C(C)C` [Example 16, N-Carbamoyl (ID#40) (3R,4S,5S,6R) 5-methoxy-4-[(2R,3R)2-methyl-3-(3-methyl-but-2-enyl)-oxiranyl]-1-oxa-spiro[2.5]oct-6-yl ester] came in with an IC50 in series [2] of more than 100 nM.

Molecule `CO[C@@H]1[C@H](OC(=O)N[C@@H](COC(=O)[C@H](C)NC(=O)[C@H](Cc2c[nH]c3ccccc23)NC(=O)[C@@H](N)CCSC)C(C)C)CC[C@]2(CO2)[C@H]1[C@@]1(C)O[C@@H]1CC=C(C)C` [Example 22, (ID#37)-(2R-{(3R,4S,5S,6R) 5-methoxy-4-[(2R,3R)2-methyl-3-(3-methyl-but-2-enyl)-oxiranyl]-1-oxa-spiro[2.5]oct-6-yloxycarbonyl}amino-3-methyl-butanol)ester] yielded an IC50 in series [2] of 0.326 nM.

The molecule `CO[C@@H]1[C@H](OC(=O)N[C@@H](COC(=O)CNC(=O)[C@@H](N)CCSC)C(C)C)CC[C@]2(CO2)[C@H]1[C@@]1(C)O[C@@H]1CC=C(C)C` [Example 23, (ID#38)-(2R-{(3R,4S,5S,6R) 5-methoxy-4-[(2R,3R)2-methyl-3-(3-methyl-but-2-enyl)-oxiranyl]-1-oxa-spiro[2.5]oct-6-yloxycarbonyl}amino-3-methyl-butanol)ester] gave an IC50 in series [2] of 0.207 nM.

Consider `COC(=O)[C@H](NC(=O)O[C@@H]1CC[C@]2(CO2)[C@@H]([C@@]2(C)O[C@@H]2CC=C(C)C)[C@@H]1OC)c1ccccc1` [Example 4, {(3R,4S,5S,6R)-5-Methoxy-4-[(2R,3R)-2-methyl-3-(3-methyl-but-2-enyl)-oxiranyl]-1-oxa-spiro[2.5]oct-6-yloxycarbonylamino}-phenyl-acetic acid methyl ester], for which the IC50 at MetAP2 (read-out: MetAP2 Assay IC50) worked out at 2.7 nM.

As for `CO[C@@H]1[C@H](OC(=O)NCC(=O)N2CCCC2C(=O)N[C@@H](CC(C)C)C(=O)NCC(=O)N[C@@H](CCSC)C(=O)N[C@@H](Cc2c[nH]c3ccccc23)C(=O)N[C@@H](C)C(=O)NCC(N)=O)CC[C@]2(CO2)[C@H]1[C@@]1(C)O[C@@H]1CC=C(C)C` (stereo partly drawn) [Example 17] (X2-G[ξP]LGMWAG-NH2), the IC50 amounted to 16.7 nM at MetAP2 and 95 nM in series [1].

With `CO[C@H]1C([C@@]2(C)O[C@@H]2CC=C(C)C)[C@]2(CC[C@H]1OC(=O)N[C@@H](COC(=O)[C@H](C)NC(=O)[C@H](Cc1c[nH]c3ccccc13)NC(=O)[C@H](CCSC)NC(=O)CNC(=O)[C@H](CC(C)C)NC(=O)[C@@H]1CCCN1C(C)=O)C(C)C)CO2` (stereo partly drawn) [Example 20, (ID#24)-(2R-{(3R,4S,5S,6R) 5-methoxy-4-[(2R,3R)2-methyl-3-(3-methyl-but-2-enyl)-oxiranyl]-1-oxa-spiro[2.5]oct-6-yloxycarbonyl}amino-3-methyl-butanol)ester] (Ac-PLGMWA-X1), the recovery at 0 min, 20 μM in series [3] (0 min, read-out: Percent Recovery (Remaining) 0 min) turned out to be 110%. The recovery at 15 min, 20 μM in series [3] (15 min, read-out: Percent Recovery (Remaining) 15 min) came to 114%. For the same molecule, the recovery at 30 min, 20 μM in series [3] (30 min, read-out: Percent Recovery (Remaining) 30 min) is 114%. In addition, the recovery at 60 min, 20 μM in series [3] (60 min, read-out: Percent Recovery (Remaining) 60 min) was 120%. Also, the recovery at 90 min, 20 μM in series [3] (90 min, read-out: Percent Recovery (Remaining) 90 min) was 106%. The recovery at 120 min, 20 μM in series [3] (120 min, read-out: Percent Recovery (Remaining) 120 min) was determined as 103%. Also, in series [3] (first order fit, read-out: T1/2), the half-life at 20 μM is not below 8.33 h.
